Measurements from patent US20180217131A1, “Novel Cell Based Assay” (Medical Diagnostic Laboratories, LLC, priority 2017, published 2018).
Positions count from the first letter of the chain named.

How the values were obtained:
Assay type in all cases: cell-based
[1] = molecular target: T1, aromatase (wild-type CYP19A1) (Homo sapiens, UniProt P11511); test: Aromatase reporter assay, 3×ERE-luc clone #4 cells transfected with expression constructs of estrogen receptor and aromatase; details: 24 hours; for testosterone-induced luciferase reporter activity in the presence of aromatase inhibitor: clone #4, testosterone with or without inhibitor
T1 construct: expressed in transfected cells; host or cells: HEK 293-derived 3xERE-luc clone #4 (co-transfected with ESR1) or clone #1 (stably expressing wild-type ESR1)
T1 sequence (P11511 1-503): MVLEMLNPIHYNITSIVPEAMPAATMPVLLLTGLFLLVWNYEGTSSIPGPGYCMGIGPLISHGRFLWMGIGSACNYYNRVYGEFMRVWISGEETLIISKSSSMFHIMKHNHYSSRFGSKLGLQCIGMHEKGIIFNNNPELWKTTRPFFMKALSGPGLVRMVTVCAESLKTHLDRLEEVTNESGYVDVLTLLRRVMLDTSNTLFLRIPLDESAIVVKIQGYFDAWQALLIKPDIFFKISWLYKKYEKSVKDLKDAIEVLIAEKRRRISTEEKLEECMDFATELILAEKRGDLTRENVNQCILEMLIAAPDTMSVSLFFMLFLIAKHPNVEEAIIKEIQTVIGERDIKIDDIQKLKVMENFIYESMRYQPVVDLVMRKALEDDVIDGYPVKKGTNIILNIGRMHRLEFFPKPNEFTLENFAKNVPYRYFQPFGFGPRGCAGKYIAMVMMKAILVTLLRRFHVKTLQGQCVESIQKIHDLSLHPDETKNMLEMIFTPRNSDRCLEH
Experimental: A serial dilution of testosterone was added to the cells for 24 hours. The luciferase reporter activity was measured.
The transfected cells were treated with testosterone in the presence or absence of aromatase inhibitors, anastrozole and letrozole, for 24 hours (FIG. 31).

[2] = molecular target: T2, R435C mutant of aromatase (CYP19A1) (Homo sapiens, UniProt P11511, R435C); test: Aromatase reporter assay with R435C mutant of CYP19A1
T2 construct: expressed in transfected cells; host or cells: HEK 293-derived reporter cells (clone #4 with ESR1 co-transfected; clone #1 stably expressing ESR1)
T2 sequence (P11511 1-503 R435C): T1 sequence (P11511 1-503) with R435C
Experimental: (§1) The transfected cells were treated with a serial dilution of testosterone. The luciferase reporter activity was measured 24 hours post-transfection.
R435C corresponds to a missense mutation of CYP19A1, which changed arginine (R) into cysteine (C) at amino acid position of 435. In order to functionally characterize this mutation, PCR-mediated overlapping extension was employed to construct linear expression cassette of aromatase carrying this mutation. We first transfected the linear expression cassette of either wild-type aromatase or mutant aromatase DNA into the reporter cells followed by treatment with testosterone and its inhibitors using “all-in-one” method. The luciferase reporter activity was measured 24 hours post-transfection.

[3] = molecular target: T1, aromatase (wild-type CYP19A1); test: Aromatase reporter assay, clone #1 cells (stable 3×ERE-Luc and wild-type ESR1) transfected with linear expression cassette of wild-type CYP19A1
Experimental: The luciferase reporter activity was measured 24 hours post-transfection.

[4] = molecular target: T3, R192H mutant of aromatase (CYP19A1) (Homo sapiens, UniProt P11511, R192H); test: Aromatase reporter assay with R192H mutant of CYP19A1
T3 construct: expressed in transfected cells; host or cells: HEK 293-derived reporter cells (clone #4 with ESR1 co-transfected; clone #1 stably expressing ESR1)
T3 sequence (P11511 1-503 R192H): T1 sequence (P11511 1-503) with R192H
Experimental: as §1
R192H corresponds to a missense mutation of CYP19A1, which changed arginine (R) into histidine (H) at amino acid position of 192. In order to functionally characterize this mutation, PCR-mediated overlapping extension was employed to construct linear expression cassette of aromatase carrying this mutation. We first transfected the linear expression cassette of either wild-type aromatase or mutant aromatase DNA into the reporter cells followed by treatment with testosterone and its inhibitors using “all-in-one” method. The luciferase reporter activity was measured 24 hours post-transfection.
We used the formula as illustrated in the above-mentioned example to calculate the activity of aromatase.

CC(C)(C#N)c1cc(Cn2cncn2)cc(C(C)(C)C#N)c1 [anastrozole]
testosterone-induced luciferase reporter activity in the presence of aromatase inhibitor [1]: reduced

N#Cc1ccc(C(c2ccc(C#N)cc2)n2cncn2)cc1 [letrozole]
testosterone-induced luciferase reporter activity in the presence of aromatase inhibitor [1]: reduced

C[C@]12CC[C@H]3[C@@H](CCC4=CC(=O)CC[C@@]43C)[C@@H]1CC[C@@H]2O [testosterone]
luciferase activity upon treatment of testosterone ([1]; clone #4, estrogen receptor and aromatase constructs, serial dilution of testosterone): dose dependent activation of luciferase activity was observed | luciferase activity upon treatment of testosterone ([2]; clone #1, linear expression cassette of R435C, all-in-one method): no increase in luciferase activity was observed | induction of luciferase reporter activity upon testosterone exposure ([2]; clone #4, expression constructs of estrogen receptor and R435C aromatase): no induction of luciferase reporter activity | luciferase reporter activity upon addition of testosterone ([3]; clone #1, 25 ng or 50 ng aromatase linear DNA, testosterone for 6 hours): responded to testosterone in a dose-dependent manner | reporter signal at 1 pM of testosterone ([3]; clone #1, 50 ng linear cassette, testosterone for 24 hours, 1 pM): robust reporter signal was detected | luciferase activity upon treatment of testosterone, compared to wild type ([4]; clone #1, linear expression cassette of R192H, all-in-one method): reduced luciferase activity was observed | luciferase reporter activity upon testosterone, compared to wild type ([4]; clone #4, expression constructs of estrogen receptor and R192H aromatase, serial dilution of testosterone): reduced luciferase reporter activity
